In publication PMC10141580, “Cyclic Dichalcogenides Extend the Reach of Bioreductive Prodrugs to Harness Thiol/Disulfide Oxidoreductases: Applications to seco-Duocarmycins Targeting the Thioredoxin System” (ACS Central Science, 2023):
Read-outs that look alike come from different tables or passages of the source.

System: NCI-60 standardized human tumor cell line panel
Experiment: cells
Type: cell-based
Details: for NCI-60 screening: Log(RedIndex): log10 reductive index vs P-CC60; for GI50: Homo sapiens

Structure (SMILES): COc1cc2cc(C(=O)N3C[C@@H](CCl)c4c3cc(OC(=O)N3CCN(C(=O)CCC(=O)N5CCN(C)CC5)[C@H]5CSSC[C@H]53)c3ccccc43)[nH]c2c(OC)c1OC [P-SS66C-CBI-TMI]
- reductive activation index ratio NCI-60/ProliFiler, mean (19 overlapping cell lines): 1.8 fold
- NCI-60 screening: Log(RedIndex) (786-0 (RE) cell line): 1.22
- NCI-60 screening: Log(RedIndex) (A498 (RE) cell line): 1.1
- NCI-60 screening: Log(RedIndex) (ACHN (RE) cell line): 1.07
- NCI-60 screening: Log(RedIndex) (CAKI-1 (RE) cell line): 0.94
- NCI-60 screening: Log(RedIndex) (DU-145 (PR) cell line): 1.27
- GI50 (786-0, 786-0 (RE) cell line, log10 of GI50 in M, read-out: NCI-60 screening: Log(GI50) (converted)): 105 nM
- GI50 (786-0, 786-0 (RE) cell line, read-out: NCI-60 screening: Raw GI50): 110 nM
- GI50 (786-0, 786-0, read-out: GI50): 110 nM
- GI50 (A498, A498 (RE) cell line, log10 of GI50 in M, read-out: NCI-60 screening: Log(GI50) (converted)): 219 nM
- GI50 (A498, A498, read-out: GI50): 220 nM
- GI50 (A549, A549/ATCC, read-out: GI50): 90 nM
- GI50 (A549, cell line A549/ATCC (LC:A549/ATCC), TMI sheet, read-out: NCI-60 screening: Log(GI50) (converted)): 89.1 nM
- GI50 (ACHN, ACHN (RE) cell line, log10 of GI50 in M, read-out: NCI-60 screening: Log(GI50) (converted)): 42.7 nM
- GI50 (ACHN, read-out: GI50): 42 nM
- GI50 (BT-549, BT-549, read-out: GI50): 140 nM
- GI50 (BT-549, cell line BT-549 (BR:BT-549), TMI sheet, read-out: NCI-60 screening: Log(GI50) (converted)): 145 nM
- GI50 (BT-549, cell line BT-549 (BR:BT-549), TMI sheet, read-out: NCI-60 screening: Raw GI50): 140 nM
- GI50 (CAKI-1, CAKI-1 (RE) cell line, log10 of GI50 in M, read-out: NCI-60 screening: Log(GI50) (converted)): 174 nM
- GI50 (CAKI-1, Caki-1, read-out: GI50): 170 nM
- GI50 (CCRF-CEM, cell line CCRF-CEM (LE:CCRF-CEM), TMI sheet, read-out: NCI-60 screening: Log(GI50) (converted)): 269 nM
- GI50 (CCRF-CEM, cell line CCRF-CEM (LE:CCRF-CEM), TMI sheet, read-out: NCI-60 screening: Raw GI50): 270 nM
- GI50 (CCRF-CEM, read-out: GI50): 270 nM
- GI50 (COLO 205, Colo 205, read-out: GI50): 140 nM
- GI50 (COLO 205, cell line COLO 205 (CO:COLO 205), TMI sheet, read-out: NCI-60 screening: Log(GI50) (converted)): 145 nM
- GI50 (COLO 205, cell line COLO 205 (CO:COLO 205), TMI sheet, read-out: NCI-60 screening: Raw GI50): 140 nM
- GI50 (DU-145, DU-145 (PR) cell line, log10 of GI50 in M, read-out: NCI-60 screening: Log(GI50) (converted)): 24.5 nM
- GI50 (DU-145, DU-145, read-out: GI50): 25 nM
- GI50 (EKVX, cell line EKVX (LC:EKVX), TMI sheet, read-out: NCI-60 screening: Log(GI50) (converted)): 209 nM
- GI50 (EKVX, read-out: GI50): 210 nM
- GI50 (HCC 2998, HCC-2998, read-out: GI50): 54 nM
- GI50 (HCC 2998, cell line HCC-2998 (CO:HCC-2998), TMI sheet, read-out: NCI-60 screening: Log(GI50) (converted)): 53.7 nM
- GI50 (HCT-15, HCT-15, read-out: GI50): 240 nM
- GI50 (HCT-15, cell line HCT-15 (CO:HCT-15), TMI sheet, read-out: NCI-60 screening: Log(GI50) (converted)): 245 nM
- GI50 (HCT-15, cell line HCT-15 (CO:HCT-15), TMI sheet, read-out: NCI-60 screening: Raw GI50): 240 nM
- GI50 (HCT-116, HCT-116, read-out: GI50): 150 nM
- GI50 (HCT-116, cell line HCT-116 (CO:HCT-116), TMI sheet, read-out: NCI-60 screening: Log(GI50) (converted)): 155 nM
- GI50 (HCT-116, cell line HCT-116 (CO:HCT-116), TMI sheet, read-out: NCI-60 screening: Raw GI50): 150 nM
- GI50 (HL-60, HL-60(TB), read-out: GI50): 48 nM
- GI50 (HL-60, cell line HL-60(TB) (LE:HL-60(TB)), TMI sheet, read-out: NCI-60 screening: Log(GI50) (converted)): 47.9 nM
- GI50 (HOP-62, HOP-62, read-out: GI50): 41 nM
- GI50 (HOP-62, cell line HOP-62 (LC:HOP-62), TMI sheet, read-out: NCI-60 screening: Log(GI50) (converted)): 41.7 nM
- GI50 (HOP-92, HOP-92, read-out: GI50): 180 nM
- GI50 (HOP-92, cell line HOP-92 (LC:HOP-92), TMI sheet, read-out: NCI-60 screening: Log(GI50) (converted)): 178 nM
- GI50 (HT-29, HT29, read-out: GI50): 140 nM
- GI50 (HT-29, cell line HT29 (CO:HT29), TMI sheet, read-out: NCI-60 screening: Log(GI50) (converted)): 141 nM
- GI50 (HT-29, cell line HT29 (CO:HT29), TMI sheet, read-out: NCI-60 screening: Raw GI50): 140 nM
- GI50 (Hs-578T, read-out: GI50): 290 nM
- GI50 (Hs-578T, read-out: NCI-60 screening: Log(GI50) (converted)): 295 nM
- GI50 (IGROV-1, IGROV1 (OV) cell line, log10 of GI50 in M, read-out: NCI-60 screening: Log(GI50) (converted)): 200 nM
- GI50 (IGROV-1, IGROV1, read-out: GI50): 200 nM
- GI50 (K562, K-562, read-out: GI50): 89 nM
- GI50 (K562, cell line K-562 (LE:K-562), TMI sheet, read-out: NCI-60 screening: Log(GI50) (converted)): 89.1 nM
- GI50 (KM12, KM12, read-out: GI50): 130 nM
- GI50 (KM12, cell line KM12 (CO:KM12), TMI sheet, read-out: NCI-60 screening: Log(GI50) (converted)): 132 nM
- GI50 (KM12, cell line KM12 (CO:KM12), TMI sheet, read-out: NCI-60 screening: Raw GI50): 130 nM
- GI50 (LOX IMVI, cell line LOX IMVI (ME:LOX IMVI), TMI sheet, read-out: NCI-60 screening: Log(GI50) (converted)): 69.2 nM
- GI50 (LOX IMVI, read-out: GI50): 69 nM
- GI50 (M14, M14, read-out: GI50): 120 nM
- GI50 (MCF7, MCF7, read-out: GI50): 15 nM
- GI50 (MCF7, cell line MCF7 (BR:MCF7), TMI sheet, read-out: NCI-60 screening: Log(GI50) (converted)): 14.8 nM
- GI50 (MDA-MB-435, MDA-MB-435, read-out: GI50): 150 nM
- GI50 (MDA-MB-435, cell line MDA-MB-435 (ME:MDA-MB-435), TMI sheet, read-out: NCI-60 screening: Log(GI50) (converted)): 148 nM
- GI50 (MDA-MB-435, cell line MDA-MB-435 (ME:MDA-MB-435), TMI sheet, read-out: NCI-60 screening: Raw GI50): 150 nM
- GI50 (MDA-MB-468, MDA-MB-468, read-out: GI50): 37 nM
- GI50 (MOLT-4, MOLT-4, read-out: GI50): 63 nM
- GI50 (MOLT-4, cell line MOLT-4 (LE:MOLT-4), TMI sheet, read-out: NCI-60 screening: Log(GI50) (converted)): 63.1 nM
- GI50 (Malme-3M, cell line MALME-3M (ME:MALME-3M), TMI sheet, read-out: NCI-60 screening: Log(GI50) (converted)): 135 nM
- GI50 (Malme-3M, cell line MALME-3M (ME:MALME-3M), TMI sheet, read-out: NCI-60 screening: Raw GI50): 130 nM
- GI50 (Malme-3M, read-out: GI50): 130 nM
- GI50 (NCI-H23, NCI-H23, read-out: GI50): 19 nM
- GI50 (NCI-H23, cell line NCI-H23 (LC:NCI-H23), TMI sheet, read-out: NCI-60 screening: Log(GI50) (converted)): 18.6 nM
- GI50 (NCI-H23, cell line NCI-H23 (LC:NCI-H23), TMI sheet, read-out: NCI-60 screening: Raw GI50): 19 nM
- GI50 (NCI-H226, NCI-H226, read-out: GI50): 240 nM
- GI50 (NCI-H226, cell line NCI-H226 (LC:NCI-H226), TMI sheet, read-out: NCI-60 screening: Log(GI50) (converted)): 245 nM
- GI50 (NCI-H226, cell line NCI-H226 (LC:NCI-H226), TMI sheet, read-out: NCI-60 screening: Raw GI50): 240 nM
- GI50 (NCI-H322M, read-out: GI50): 50 nM
- GI50 (NCI-H322M, read-out: NCI-60 screening: Log(GI50) (converted)): 50.1 nM
- GI50 (NCI-H460, NCI-H460 (LC) cell line, log10 of GI50 in M, read-out: NCI-60 screening: Log(GI50) (converted)): 22.4 nM
- GI50 (NCI-H460, NCI-H460, read-out: GI50): 22 nM
- GI50 (NCI-H522, NCI-H522 (LC) cell line, log10 of GI50 in M, read-out: NCI-60 screening: Log(GI50) (converted)): 55 nM
- GI50 (NCI-H522, NCI-H522, read-out: GI50): 56 nM
- GI50 (OVCAR-3, OVCAR-3 (OV) cell line, log10 of GI50 in M, read-out: NCI-60 screening: Log(GI50) (converted)): 145 nM
- GI50 (OVCAR-3, OVCAR-3 (OV) cell line, read-out: NCI-60 screening: Raw GI50): 140 nM
- GI50 (OVCAR-3, OVCAR-3, read-out: GI50): 140 nM
- GI50 (OVCAR-4, OVCAR-4 (OV) cell line, log10 of GI50 in M, read-out: NCI-60 screening: Log(GI50) (converted)): 195 nM
- GI50 (OVCAR-4, OVCAR-4, read-out: GI50): 190 nM
- GI50 (OVCAR-5, OVCAR-5 (OV) cell line, log10 of GI50 in M, read-out: NCI-60 screening: Log(GI50) (converted)): 257 nM
- GI50 (OVCAR-5, OVCAR-5, read-out: GI50): 250 nM
- GI50 (OVCAR-8, OVCAR-8 (OV) cell line, log10 of GI50 in M, read-out: NCI-60 screening: Log(GI50) (converted)): 91.2 nM
- GI50 (OVCAR-8, OVCAR-8, read-out: GI50): 92 nM
- GI50 (PC-3 (PR) cell line, log10 of GI50 in M, read-out: NCI-60 screening: Log(GI50) (converted)): 479 nM
- GI50 (PC-3, PC-3, read-out: GI50): 480 nM
